Test systems include ACHN renal; HCC-2998 colon; K-562 leukemia; NCI-H522 lung; OVCAR-3 ovarian; RPMI-8226 leukemia; SK-MEL-28 melanoma; SK-OV-3 ovarian; SR leukemia; TK-10 renal.
What all share (experiment): DTP human tumour cell line panel, 48 h

Molecules are shown by their SMILES. Several values for one entry are separate records, joined by “and”; a condition that tells them apart may be missing. Equal values may be shown once.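 A five-concentration, 48-hour dose response in 96-well plates underlies each endpoint, interpolated linearly between surrounding concentrations. Here, GI50 denotes the concentration required for 50% inhibition of growth. At the TGI there is no net growth.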 Non-standard residues stand in square brackets, D forms with d. Residues, ends and D or L forms follow the SMILES beside them. *: point of attachment. ONb = O=[N+]([O-])c1ccc(CO*)cc1; AllylGly = C=CC[CH](N)C(=O)O; Boc = CC(C)(C)OC(=O)* A value given as a limit tells only on which side of the number the result lay.

For orientation: GI50 means the concentration giving 50% growth inhibition. The term TGI denotes the concentration at which net growth stops. A lower TGI goes with more potent growth arrest.

As for `COc1cc(O)c([C@@H]2C[C@H](CCc3ccc(O)cc3)O[C@H](c3ccc(O)cc3)C2)c(O)c1C(=O)/C=C/c1ccc(O)cc1`, the GI50 with ACHN renal was 2.43 µM; in the test with HCC-2998 colon, 0.558 µM; in the test on K-562 leukemia, 2.32 µM; in the test with NCI-H522 lung it was 2.73 µM; with OVCAR-3 ovarian, 2.69 µM; in the test with RPMI-8226 leukemia, 2.11 µM. For the same compound, the GI50 with SK-MEL-28 melanoma was 3.28 µM; with SK-OV-3 ovarian, 2.74 µM; in the test on SR leukemia, 2.42 µM; with TK-10 renal, 3.94 µM. Besides, the TGI in the test on ACHN renal is 6.01 µM; in the test with HCC-2998 colon, 1.73 µM; in the test on K-562 leukemia, 6.24 µM; in the test with NCI-H522 lung it was 8.52 µM; in the test with OVCAR-3 ovarian, 7.16 µM; with RPMI-8226 leukemia, 4.68 µM. Besides, the TGI with SK-MEL-28 melanoma stood at 12 µM; with SK-OV-3 ovarian it was 6.11 µM; in the test with SR leukemia, 4.8 µM; in the test on TK-10 renal, 13.5 µM.
For the compound `COc1ccc2nc(N/N=C(\C)c3ccccn3)cc(C)c2c1`, the GI50 in the test with ACHN renal is 0.22 µM; with HCC-2998 colon it was 0.348 µM; in the test with K-562 leukemia, 0.303 µM; in the test with NCI-H522 lung it was 0.292 µM; in the test with OVCAR-3 ovarian, 0.0652 µM; in the test on RPMI-8226 leukemia, 0.369 µM. The GI50 in the test with SK-MEL-28 melanoma is 0.445 µM; in the test with SK-OV-3 ovarian it was 0.269 µM; in the test on SR leukemia, 0.0592 µM; with TK-10 renal, 0.207 µM. For the same compound, the TGI came to 1.21 µM in the test with ACHN renal; 2.06 µM in the test on HCC-2998 colon; 1.3 µM in the test on K-562 leukemia; 1.88 µM in the test on NCI-H522 lung; 0.215 µM in the test on OVCAR-3 ovarian; 1.36 µM with RPMI-8226 leukemia. The TGI was determined as 1.68 µM in the test with SK-MEL-28 melanoma, 2.08 µM in the test on SK-OV-3 ovarian, 0.452 µM with SR leukemia and 0.991 µM in the test with TK-10 renal.
As to `C[C@@H]1C[C@@H](O)[C@]2(O)O[C@@H]3C[C@@]4(C=O)[C@@H](CC[C@@H]5[C@@H]4CC[C@]4(C)[C@@H](C6=CC(=O)OC6)CC[C@]54O)C[C@H]3O[C@@H]2O1`, the GI50 in the test with ACHN renal is 0.00692 µM and 0.005 µM; in the test with HCC-2998 colon, 0.0273 µM; in the test with K-562 leukemia, 0.0553 µM and 0.0124 µM; in the test on NCI-H522 lung, 0.00751 µM; in the test on OVCAR-3 ovarian, 0.0241 µM; in the test on SK-MEL-28 melanoma, 0.167 µM and 0.0409 µM. Moreover, the GI50 with SK-OV-3 ovarian was 0.0636 µM and 0.0173 µM; with SR leukemia, 0.013 µM; in the test with TK-10 renal, 0.0202 µM and 0.005 µM. In addition, the TGI with HCC-2998 colon was 0.582 µM and 0.134 µM; with K-562 leukemia it was 0.601 µM and 1.59 µM and 0.523 µM; with RPMI-8226 leukemia it was 0.0752 µM; with SK-MEL-28 melanoma, 0.143 µM and 0.683 µM and 0.354 µM; in the test on SR leukemia, 0.0128 µM and 0.0317 µM; in the test with TK-10 renal it was 0.098 µM and 0.0775 µM and 0.0558 µM.
Take `C=CCC(NC(=O)OC(C)(C)C)C(=O)NC(CCC(=O)OCc1ccc([N+](=O)[O-])cc1)C(N)=O` (configuration not stated) (Boc-[AllylGly]-Glu(ONb)-NH2; configuration not given here): the GI50 in the test on ACHN renal was 18.1 µg/mL; in the test with HCC-2998 colon it was 19.2 µg/mL; with K-562 leukemia, 18.2 µg/mL; with NCI-H522 lung, 28.1 µg/mL; in the test with OVCAR-3 ovarian, 26.3 µg/mL; in the test on RPMI-8226 leukemia, 26.7 µg/mL. For the same compound, the GI50 in the test with SK-MEL-28 melanoma is 16.3 µg/mL; with SK-OV-3 ovarian, 24.6 µg/mL; in the test with SR leukemia, 47.8 µg/mL; in the test on TK-10 renal it was 34.3 µg/mL. Besides, the TGI in the test on ACHN renal was found to be 33.3 µg/mL; in the test on HCC-2998 colon it was 43.7 µg/mL; in the test on K-562 leukemia, 65.5 µg/mL; with OVCAR-3 ovarian it was 90.1 µg/mL; with RPMI-8226 leukemia, 77.6 µg/mL; in the test on SK-MEL-28 melanoma it was 30.9 µg/mL. In addition, in the test with SK-OV-3 ovarian, the TGI is 66.3 µg/mL.
Take `COc1cc(/C(C#N)=C/c2ccc3c(c2OC)OCO3)cc2c1OCO2`: the GI50 with ACHN renal is 2.43 µM; in the test on HCC-2998 colon, 0.182 µM; in the test on K-562 leukemia, 0.0358 µM; in the test with NCI-H522 lung, 0.0324 µM; with OVCAR-3 ovarian it was 0.0272 µM; in the test with RPMI-8226 leukemia it was 0.146 µM. Further, the GI50 was 1.24 µM in the test on SK-MEL-28 melanoma, 0.113 µM with SK-OV-3 ovarian, 0.0244 µM with SR leukemia and 0.982 µM in the test on TK-10 renal. Further, the TGI with ACHN renal is greater than 58.9 µM; in the test on HCC-2998 colon, 10.8 µM; in the test on K-562 leukemia it was greater than 32.9 µM; in the test on NCI-H522 lung, 0.283 µM; in the test on OVCAR-3 ovarian it was 0.0774 µM; in the test on RPMI-8226 leukemia it was 33.2 µM. Further, the TGI in the test with SK-MEL-28 melanoma was greater than 100 µM; in the test with SK-OV-3 ovarian, 14.2 µM; with SR leukemia it was 5.37 µM; in the test on TK-10 renal it was 37.2 µM.
For `CS(=O)(=O)CCNCc1nc(-c2ccc3ncnc(Nc4ccc(F)c(Cl)c4)c3c2)cs1`, the GI50 was 0.785 µM with ACHN renal; greater than 25 µM with HCC-2998 colon; greater than 12.5 µM in the test with K-562 leukemia; 3.34 µM in the test with NCI-H522 lung; 11.1 µM in the test with OVCAR-3 ovarian; greater than 21.4 µM in the test on RPMI-8226 leukemia. Besides, the GI50 was greater than 20.2 µM in the test with SK-MEL-28 melanoma, 1.96 µM with SK-OV-3 ovarian, greater than 14 µM in the test on SR leukemia and 0.232 µM in the test with TK-10 renal. Besides, the TGI in the test with ACHN renal was greater than 25 µM; in the test with HCC-2998 colon it was greater than 25 µM; with K-562 leukemia, greater than 19.7 µM; with NCI-H522 lung it was greater than 25 µM; with OVCAR-3 ovarian, greater than 25 µM; in the test with RPMI-8226 leukemia, greater than 25 µM. Further, the TGI in the test on SK-MEL-28 melanoma was greater than 25 µM; in the test with SK-OV-3 ovarian, 11 µM; in the test with SR leukemia, greater than 22.2 µM; in the test with TK-10 renal it was greater than 25 µM.
In the case of `COC(=O)N[C@H]1CCc2c(Br)c(OC)c(OC)c(OC)c2-c2ccc(SC)c(=O)cc21`, the GI50 in the test on ACHN renal, in the test on HCC-2998 colon, with K-562 leukemia, in the test with NCI-H522 lung, in the test on OVCAR-3 ovarian and in the test with RPMI-8226 leukemia was less than 0.01 µM throughout. For the same compound, the GI50 is 6.99 µM in the test with SK-MEL-28 melanoma, less than 0.01 µM in the test on SK-OV-3 ovarian, less than 0.01 µM in the test on SR leukemia and 9.63 µM in the test with TK-10 renal. Besides, the TGI with ACHN renal was 25.4 µM; in the test with HCC-2998 colon, 11.5 µM; with K-562 leukemia, 15.9 µM; in the test with NCI-H522 lung it was 1.22 µM; with OVCAR-3 ovarian, less than 0.01 µM; in the test with RPMI-8226 leukemia, 5.84 µM. Also, the TGI in the test on SK-MEL-28 melanoma was 25.1 µM; in the test on SK-OV-3 ovarian, greater than 100 µM; in the test on SR leukemia it was 22.4 µM; in the test with TK-10 renal it was greater than 85.9 µM.

(Values after PubChem BioAssay (NCI).)
